Test results published in patent US4837399A, “Napthoquinone antibiotics from fuserium solani” (The United States of America as represented by the …, priority 1988, dated 1989).
Values after ≈ are worked out from the molar mass of the structure shown.

How the values were obtained:
Type in all cases: cell-based
[1] = test system: Curtobacterium flaccumfaciens pv. poinsettiae; assay: Filter paper disc assay, Curtobacterium flaccumfaciens pv. poinsettiae; details: 20, 40, and 80 μg/disc, Kings medium B plates
Experimental: (§1) Antimicrobial activity of compounds was determined against a group of bacterial pathogens, using a broth microdilution assay.Pathogens tested included Staphylococcus aureus, Streptococcus pyogenes, Escherichia coli, Serratia marcescens, Proteus vulgaris, Klebsiella pneumoniae, Salmonella typhi, and Pseudomonas aeruginosa. Activity against plant pathogenic bacteria was tested by applying acetone solutions of compounds to 14 mm Whatman No. 1 filter paper discs, drying and placing four discs/plate on freshly inoculated Kings medium B plates. Pseudomonas cepacia, P. cichorii, P. fluorescens, P. syringae pv. phaseolicola, P. viridiflava, and Xanthomonas campestris were exposed to discs containing 20 μg of compound; Curtobacterium flaccumfaciens pv. poinsettiae (formerly Corynebacterium poinsettiae) was tested at 20, 40, and 80 μg/disc. Using a similar assay procedure, Alternaria citri, Colletotrichum gloeosporioides, Diplodia natalensis, Fusarium solani, F. oxysporum, Geotrichum candidium, Phomopsis citri, and Phytophthora parasitica were tested to determine the antifungal properties of the compounds.
They were, however, effective against gram-positive bacteria.

Staphylococcus aureus = assay: Broth microdilution assay, Staphylococcus aureus; details: for MIC: A = Staphylococcus aureus, complete suppression of microbial growth, read-out: Antibacterial activity (MIC)
Experimental: (§2) Purified compounds were tested for antibiotic activity by dissolving in dimethyl sulfoxide and utilizing a standard broth microdilution assay. The smallest amount of compound resulting in complete inhibition of bacterial growth is the minimum inhibitory concentration (MIC).
(§3) The organisms used in the tests were three strains of gram-positive bacteria: Staphylococcus aureus, Streptococcus pyogenes, and a strain of Staphylococcus aureus which was resistant to the antibiotic methicillin.
as §1

Streptococcus pyogenes = assay: Broth microdilution assay, Streptococcus pyogenes; details: for MIC: B = Streptococcus pyogenes, complete suppression of microbial growth, read-out: Antibacterial activity (MIC)
Experimental: as §2, §3, §1

[2] = test system: Staphylococcus aureus 95 (resistant to methicillin); assay: Broth microdilution assay, Staphylococcus aureus 95 (resistant to methicillin)
Experimental: as §2, §3

gram-positive bacteria = assay: Broth microdilution assay, gram-positive bacteria overall
Experimental: as §2, §3
as §1, with “Using a similar assay procedure, Alternaria citri, Colletotrichum gloeosporioides, Diplodia natalensis, Fusarium solani, F. oxysporum, Geotrichum candidium, Phomopsis citri, and Phytophthora parasitica were tested to determine the antifungal properties of the compounds.” left out

| Compound | ranking of activity against Curtobacterium flaccumfaciens pv. poinsettiae [1] | effectiveness in control of Staphylococcus aureus (in words) (Staphylococcus aureus) | MIC (Staphylococcus aureus) | MIC (Streptococcus pyogenes) | preference for control of Staphylococcus aureus 95 (in words) [2] | MIC ([2]; C = Staphylococcus aureus 95 (resistant to methicillin), complete suppression of microbial growth, read-out: Antibacterial activity (MIC)) | effectiveness against gram-positive bacteria (in words) (gram-positive bacteria) | MIC (gram-positive bacteria; read-out: inhibiting growth) | preference for control of Streptococcus pyogenes (in words) (Streptococcus pyogenes) |
| --- | --- | --- | --- | --- | --- | --- | --- | --- | --- |
| COC1=CC(=O)c2c(O)c(CO)c3c(c2C1=O)OC(C)C3 (stereo not drawn) [Compound 2, 2,3-Dihydro-5-hydroxy-4-hydroxymethyl-8-methoxy-2-methyl-naphtho [1,2-b]furan-6,9-dione] | most active | most effective | 4 µg/mL (≈ 13.8 µM) | 64 µg/mL (≈ 220 µM) | – | – | – | – | – |
| COc1cc(O)c2c(c1O)C(=O)C(CC(C)O)C(CO)C2=O (stereo not drawn) [Compound 1, 2,3-Dihydro-5,8-dihydroxy-6-methoxy-2-hydroxymethyl-3-(2-hydroxypropyl)-1,4-naphthalenedione] | – | most effective | 1 µg/mL (≈ 3.22 µM) | 0.5 µg/mL (≈ 1.61 µM) | preferred | 4 µg/mL (≈ 12.9 µM) | the most effective | 0.5 to 1 µg/mL (≈ 1.61 to 3.22 µM) | preferred |
| COC1=CC(=O)c2c(O)c(CO)c(CC(C)O)c(O)c2C1=O (stereo not drawn) [Compound 3, 5,8-Dihydroxy-2-methoxy-6-hydroxymethyl-7-(2-hydroxypropyl)-1,4-naphthalenedione] | followed by 1 and 3 | – | 1 µg/mL (≈ 3.24 µM) | 64 µg/mL (≈ 208 µM) | – | – | – | – | – |
